{"source": "ChEMBL document CHEMBL1212814", "about": "“Polyamines in drug discovery: from the universal template approach to the multitarget-directed ligand design strategy” (J Med Chem, 2010)", "assay": "Inhibition of amyloid beta (1-40) aggregation by thioflavin T based fluorometric assay", "data": [{"smiles": "CCN(CCCCCCNC1=CC(=O)C(NCCCCCCN(CC)Cc2ccccc2OC)=CC1=O)Cc1ccccc1OC", "note": "[MEMOQUIN]", "values": [{"measurement": "IC50", "value": 5.93, "unit": "µM"}]}, {"smiles": "CN(C)[C@@H]1C(O)=C(C(N)=O)C(=O)[C@@]2(O)C(O)=C3C(=O)c4c(O)cccc4[C@@](C)(O)[C@H]3C[C@@H]12", "note": "[TETRACYCLINE]", "values": [{"measurement": "IC50", "value": 60.3, "unit": "µM"}]}]}
